These results are taken from patent publication EP3722296B1, “DIHYDRONAPHTHYRIDINES AND RELATED COMPOUNDS USEFUL AS KINASE INHIBITORS FOR THE TREATMENT OF PROLIFERATIVE DISEASES” (Deciphera Pharmaceuticals, LLC, priority 2012, dated 2013).

For one assay, the system named is Phospho-KIT (Tyr719). Briefly: GIST48 KIT Western Blot. The format is cell-based. The note with it: GIST48 cells, 4 hours, serum-free medium; read-out: pKIT suppression by western blot analysi GIST48. As for the experimental part: GIST48, GIST430, and GIST882 cells were obtained from J. Fletcher (Brigham and Women's Hospital, Boston, MA). GIST T1 cells were obtained from B. Rubin (Cleveland Clinic, Cleveland, OH) and Professor Takahiro Taguchi (Kochi Medical School, Nankoku, Kochi, Japan). […] GIST430 cells were grown in Ham's F10 medium supplemented with 15% characterized fetal bovine serum (Invitrogen, Carlsbad, CA), 30 mg/L bovine pituitary extract (BD Biosciences, San Jose, CA), 0.5% Mito+ serum extender (BD Biosciences, San Jose, CA), 1 unit/mL penicillin G, 1 µg/ml streptomycin, and 0.29 mg/mL L-glutamine at 37 °C, 5%CO2, 95% humidity. GIST T1 cells were grown in DMEM medium supplemented with 10% characterized fetal bovine serum (Invitrogen, Carlsbad, CA), 1 unit/mL penicillin G, 1 µg/ml streptomycin, and 0.29 mg/mL L-glutamine at 37 °C, 5% CO2, and 95% humidity.
Two hundred fifty thousand cells were added per well in a 24-well tissue-culture treated plate. […] Medium was aspirated, cells were washed with PBS, and serum-free RPMI1640 medium was added. […] Cells were washed with PBS, then lysed. Cell lysates were separated by SDS-PAGE and transferred to PVDF. Phospho-KIT (Tyr719) was detected using an antibody from Cell Signaling Technology (Beverly, MA), ECL Plus detection reagent (GE Healthcare, Piscataway, NJ) and a Molecular Devices Storm 840 phosphorimager in fluorescence mode. Blots were stripped and probed for total KIT using an antibody from Santa Cruz Biotech (Santa Cruz, CA). IC50 values were calculated using Prism software (Graphpad, San Diego, CA).
(In western blotting, separated proteins are transferred to a membrane and probed.)

A further assay concerns the target T1, c-KIT V654A kinase (Homo sapiens, UniProt P10721, V654A).
T1 construct: residues T544-V976 with N-terminal GST fusion; purchased deCODE Biostructures
Briefly: c-KIT V654A Kinase Assay. Type of assay: biochemical. The note with it: enzymatic assay, ATP 200 µM. Here is the method: In this assay, the oxidation of NADH (measured by decrease in absorbance at 340 nm) was continuously monitored spectrophotometrically. […] The inhibition reaction was started by mixing serial diluted test compound with the above reaction mixture. The absorption at 340 nm was monitored continuously for 6 hours at 30 °C on Synergy 2 plate reader (BioTech).
(§1) The protein construct was prepared by deCODE Biostructures using procedures known in the art. The construct contains residues T544-V976 of cKit, an N-terminal tag, a GST-fusion sequence and a TEV cleavage site. This construct is identical to Seq ID no.

A further assay addresses T2, c-KIT D816V kinase (Homo sapiens, UniProt P10721, D816V).
T2 construct: residues T544-V976 with N-terminal GST fusion; purchased deCODE Biostructures
Briefly: c-KIT D816V kinase Assay. The format is biochemical. The note with it: enzymatic assay, ATP 200 uM. Here is the method:
In this assay, the oxidation of NADH (measured by decrease in absorbance at 340 nm) was continuously monitored spectrophotometrically. […] The inhibition reaction was started by mixing serial diluted test compound with the above reaction mixture. The absorption at 340 nm was monitored continuously for 5 hours at 30 °C on Synergy 2 plate reader (BioTech).
as §1

Another assay addresses T3, c-KIT T670I kinase (Homo sapiens, UniProt P10721, T670I).
T3 construct: The construct contains residues T544-V976 of cKit; GST (N); TEV cleavage site (internal); purchased deCODE Biostructures
Briefly: c-KIT T670I kinase assay. The format is biochemical. The conditions noted are these: enzymatic assay. Here is the method: In this assay, the oxidation of NADH (measured by decrease in absorbance at 340 nm) was continuously monitored spectrophotometrically. […] The inhibition reaction was started by mixing serial diluted test compound with the above reaction mixture. The absorption at 340 nm was monitored continuously for 5 hours at 30 °C on Synergy 2 plate reader (BioTech). […] The protein construct was prepared by deCODE Biostructures using procedures known in the art. The construct contains […] of cKit, an N-terminal tag, a GST-fusion sequence and a TEV cleavage site. This construct is identical to Seq ID no. 1 except for the T670I mutation. [formula] [formula]

The target of another assay is c-KIT kinase (Homo sapiens, UniProt P10721). As to the kind of experiment: c-KIT kinase Assay. More on the design: cKIT residues T544-V976; GST (N); TEV cleavage site (internal); purchased deCODE Biostructures. The note with it: enzymatic assay, ATP 200 µM; read-out: KIT (wt) IC50. Type of assay: biochemical. Here is the method:
In this assay, the oxidation of NADH (measured by decrease in absorbance at 340 nm) was continuously monitored spectrophotometrically. […] The absorption at 340 nm was monitored continuously for 2 hours at 30 °C on Synergy 2 (BioTeK). The reaction rate was calculated using the 0 to 1 h time frame. Percent inhibition was obtained by comparison of reaction rate with that of a control (i.e. with no test compound). IC50 values were calculated from a series of percent inhibition values determined at a range of inhibitor concentrations using software routines as implemented in the GraphPad Prism software package. The protein construct was prepared by deCODE Biostructures using procedures known in the art. The construct contains […] of cKit, an N-terminal tag, a GST-fusion sequence and a TEV cleavage site. [formula]

The target of the next assay is T4, c-KIT D816H kinase (Homo sapiens, UniProt P10721, D816H).
T4 construct: The construct contains residues T544-V976 of cKit; GST (N); TEV cleavage site (internal); purchased deCODE Biostructures
Briefly: c-KIT D816H Kinase Assay. The format is biochemical. The note with it: enzymatic assay, ATP 200 µM. As for the experimental part:
In this assay, the oxidation of NADH (measured by decrease in absorbance at 340 nm) was continuously monitored spectrophotometrically. […] The inhibition reaction was started by mixing serial diluted test compound with the above reaction mixture. The absorption at 340 nm was monitored continuously for 6 hours at 30 °C on Synergy 2 plate reader (BioTech). […] The protein construct was prepared by deCODE Biostructures using procedures known in the art. The construct contains […] of cKit, an N-terminal tag, a GST-fusion sequence and a TEV cleavage site. This construct is identical to Seq ID no.

The test system of the next assay is GIST T1 cells. As to the kind of experiment: GIST T1 Cell Proliferation Assay. The note with it: Homo sapiens, GISTT1, 72 h, 68 hours + 4 hours resazurin. The format is cell-based. Here is the method: GIST48, GIST430, and GIST882 cells were obtained from J. Fletcher (Brigham and Women's Hospital, Boston, MA). GIST T1 cells were obtained from B. Rubin (Cleveland Clinic, Cleveland, OH) and Professor Takahiro Taguchi (Kochi Medical School, Nankoku, Kochi, Japan). Briefly, GIST48 and GIST 882 cells were grown in RPMI 1640 medium supplemented with 15% characterized fetal bovine serum (Invitrogen, Carlsbad, CA), 1 unit/mL penicillin G, 1 µg/ml streptomycin, and 0.29 mg/mL L-glutamine at 37 °C, 5% CO2, and 95% humidity. GIST430 cells were grown in Ham's F10 medium supplemented with 15% characterized fetal bovine serum (Invitrogen, Carlsbad, CA), 30 mg/L bovine pituitary extract (BD Biosciences, San Jose, CA), 0.5% Mito+ serum extender (BD Biosciences, San Jose, CA), 1 unit/mL penicillin G, 1 µg/ml streptomycin, and 0.29 mg/mL L-glutamine at 37 °C, 5%CO2, 95% humidity. GIST T1 cells were grown in DMEM medium supplemented with 10% characterized fetal bovine serum (Invitrogen, Carlsbad, CA), 1 unit/mL penicillin G, 1 µg/ml streptomycin, and 0.29 mg/mL L-glutamine at 37 °C, 5% CO2, and 95% humidity.
A serial dilution of test compound was dispensed into a 384-well black clear bottom plate (Corning, Corning, NY). One thousand two-hundred fifty cells were added per well in 50 µL complete growth medium. Plates were incubated for 68 hours at 37 °C, 5% CO2, 95% humidity. At the end of the incubation period 10 µL of a 440 µM solution of resazurin (Sigma, St. Louis, MO) in PBS was added to each well and incubated for an additional 4 hours at 37 °C, 5% CO2, 95% humidity. Plates were read on a Synergy2 reader (Biotek, Winooski, VT) using an excitation of 540 nm and an emission of 600 nm.

T4 sequence (P10721 544-976 D816H): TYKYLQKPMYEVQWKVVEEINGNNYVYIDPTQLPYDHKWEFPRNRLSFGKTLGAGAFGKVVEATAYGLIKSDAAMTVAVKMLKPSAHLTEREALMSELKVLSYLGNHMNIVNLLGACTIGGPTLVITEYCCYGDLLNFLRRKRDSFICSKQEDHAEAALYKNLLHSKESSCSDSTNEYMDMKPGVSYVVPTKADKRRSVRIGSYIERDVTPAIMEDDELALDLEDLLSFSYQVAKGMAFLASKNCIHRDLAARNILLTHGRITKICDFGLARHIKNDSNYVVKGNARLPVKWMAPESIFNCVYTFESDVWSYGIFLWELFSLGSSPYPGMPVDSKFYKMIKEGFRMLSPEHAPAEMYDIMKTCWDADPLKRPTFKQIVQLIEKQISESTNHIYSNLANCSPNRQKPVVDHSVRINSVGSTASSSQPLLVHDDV
T3 sequence (P10721 544-976 T670I): as the sequence (P10721 544-976 D816H) above, with T127I, H273D counted along it
T2 sequence (P10721 544-976 D816V): as the sequence (P10721 544-976 D816H) above, with H273V counted along it
c-KIT kinase, sequence (P10721 544-976): as the sequence (P10721 544-976 D816H) above, with H273D counted along it
T1 sequence (P10721 544-976 V654A): as the sequence (P10721 544-976 D816H) above, with V111A, H273D counted along it

For `Cc1cc(F)c(NC(=O)Nc2ccccc2)cc1-c1cc2cnc(NC(=O)N3CCC3)cc2n(C(C)C)c1=O` [Example 109, N-(3-(4-fluoro-2-methyl-5-(3-phenylureido)phenyl)-1-isopropyl-2-oxo-1,2-dihydro-1,6-naphthyridin-7-yl)azetidine-1-carboxamide], the IC50 in the assay with Phospho-KIT (Tyr719) was in the range of 10 to 100 nM.
`CCn1c(=O)c(-c2cc(NC(=O)Nc3ccccc3F)c(F)cc2Cl)cc2cnc(NCCOC)cc21` [Example 35, 1-(4-chloro-5-(1-ethyl-7-(2-methoxyethylamino)-2-oxo-1,2-dihydro-1,6-naphthyridin-3-yl)-2-fluorophenyl)-3-(2-fluorophenyl)urea]: the IC50 is 10 to 100 nM at c-KIT V654A kinase; 10 to 100 nM at c-KIT D816V kinase; 100 to 1000 nM at c-KIT T670I kinase; less than 10 nM on c-KIT kinase; 10 to 100 nM on c-KIT D816H kinase.
With `CCn1c(=O)c(-c2cc(NC(=O)Nc3ccc(F)c(CN4CCOCC4)c3)c(F)cc2Cl)cc2cnc(NC=O)cc21` [Example 107, N-(3-(2-chloro-4-fluoro-5-(3-(4-fluoro-3-(morpholinomethyl)phenyl)ureido)phenyl)-1-ethyl-2-oxo-1,2-dihydro-1,6-naphthyridin-7-yl)formamide], the IC50 in the assay on GIST T1 cells was in the range of 10 to 100 nM.
For the compound `CCn1c(=O)c(-c2cc(NC(=O)Nc3ccccc3)c(F)cc2C)cc2cnc(NC(=O)N3CCC3)cc21` [Example 110, N-(1-ethyl-3-(4-fluoro-2-methyl-5-(3-phenylureido)phenyl)-2-oxo-1,2-dihydro-1,6-naphthyridin-7-yl)azetidine-1-carboxamide], the IC50 on c-KIT V654A kinase was 10 to 100 nM; at c-KIT D816V kinase it was 10 to 100 nM; at c-KIT T670I kinase, 10 to 100 nM; at c-KIT kinase, 10 to 100 nM; on c-KIT D816H kinase, 10 to 100 nM; in the assay on Phospho-KIT (Tyr719), less than 10 nM.
On to `CCn1c(=O)c(-c2cc(NC(=O)Nc3ccc(F)c(CN4CCN(C)CC4)c3)c(F)cc2C)cc2cnc(NC)cc21` [Example 89, 1-(5-(1-ethyl-7-(methylamino)-2-oxo-1,2-dihydro-1,6-naphthyridin-3-yl)-2-fluoro-4-methylphenyl)-3-(4-fluoro-3-((4-methylpiperazin-1-yl)methyl)phenyl)urea], for which the IC50 lay within 100 to 1000 nM at c-KIT V654A kinase; 100 to 1000 nM at c-KIT D816V kinase; 10 to 100 nM on c-KIT T670I kinase; 10 to 100 nM at c-KIT kinase; 10 to 100 nM at c-KIT D816H kinase.
Consider `CCn1c(=O)c(-c2cc(NC(=O)Nc3cccc(C#N)c3)c(F)cc2Cl)cc2cnc(NC)cc21` [Example 91, 1-(4-chloro-5-(1-ethyl-7-(methylamino)-2-oxo-1,2-dihydro-1,6-naphthyridin-3-yl)-2-fluorophenyl)-3-(3-cyanophenyl)urea], for which the IC50 is 10 to 100 nM on c-KIT V654A kinase; 10 to 100 nM at c-KIT D816V kinase; 10 to 100 nM on c-KIT T670I kinase; less than 10 nM at c-KIT kinase; 10 to 100 nM at c-KIT D816H kinase.
In the case of `CCn1c(=O)c(-c2cc(NC(=O)Nc3ccccc3)c(F)cc2C)cc2cnc(NCCOC)cc21` [Example 37, 1-(5-(1-ethyl-7-(2-methoxyethylamino)-2-oxo-1,2-dihydro-1,6-naphthyridin-3-yl)-2-fluoro-4-methylphenyl)-3-phenylurea], the IC50 is 10 to 100 nM at c-KIT V654A kinase; 10 to 100 nM at c-KIT D816V kinase; 100 to 1000 nM at c-KIT T670I kinase; less than 10 nM at c-KIT kinase; 10 to 100 nM on c-KIT D816H kinase.
With `CCn1c(=O)c(-c2cc(NC(=O)Nc3ccccc3)c(F)cc2C)cc2cnc(NC(=O)N3CC(N(C)C)C3)cc21` [Example 113, 3-(dimethylamino)-N-(1-ethyl-3-(4-fluoro-2-methyl-5-(3-phenylureido)phenyl)-2-oxo-1,2-dihydro-1,6-naphthyridin-7-yl)azetidine-1-carboxamide], the IC50 at c-KIT V654A kinase is 100 to 1000 nM; at c-KIT D816V kinase, 10 to 100 nM; on c-KIT T670I kinase, 10 to 100 nM; at c-KIT kinase, 10 to 100 nM; on c-KIT D816H kinase it was less than 10 nM.
Regarding `CCn1c(=O)c(-c2cc(NC(=O)Nc3ccccc3)c(F)cc2F)cc2cnc(NC(=O)N(C)C)cc21` [Example 112, 3-(3-(2,4-difluoro-5-(3-phenylureido)phenyl)-1-ethyl-2-oxo-1,2-dihydro-1,6-naphthyridin-7-yl)-1,1-dimethylurea], the IC50 on c-KIT D816V kinase is 10 to 100 nM; at c-KIT T670I kinase, less than 10 nM; on c-KIT kinase, less than 10 nM; at c-KIT D816H kinase, less than 10 nM.
Turning to `CCn1c(=O)c(-c2cc(NC(=O)Nc3ccc(F)cc3)c(F)cc2Cl)cc2cnc(NCCOC)cc21` [Example 34, 1-(4-chloro-5-(1-ethyl-7-(2-methoxyethylamino)-2-oxo-1,2-dihydro-1,6-naphthyridin-3-yl)-2-fluorophenyl)-3-(4-fluorophenyl)urea], the IC50 on c-KIT V654A kinase is 10 to 100 nM; at c-KIT D816V kinase, 10 to 100 nM; on c-KIT T670I kinase, 10 to 100 nM; on c-KIT kinase it was less than 10 nM; at c-KIT D816H kinase, 10 to 100 nM.
